The test system of this assay is C3AKF1 mice, osteogenic sarcoma HE10734 s.c., tumor weight T/C. The assay can be described thus: NCI In Vivo Anticancer Drug Screen. Data for tumor model Osteogenic Sarcoma HE 10734 (subcutaneous) in C3AKF1 (CHKRF1) mice. The note with it: endpoint: mean tumor weight, schedule: Q01DX010 (ip), higher = larger tumour. As to the method: The antitumor activity of compounds was measured in mice bearing transplantable tumors. Survival or tumor size were measured and the results are expressed as the measurement made in the treated group (T) divided by the measurement made in the vehicle treated control group (C). The tumor model used in this assay is Osteogenic Sarcoma HE 10734 (subcutaneous) in C3AKF1 (CHKRF1) mice

Where [1] appears, read: dose: 125.0 mg/kg/injection, vehicle: carboxymethylcellulose (CMC).
[2] abbreviates: dose: 250.0 mg/kg/injection, vehicle: carboxymethylcellulose (CMC).
The mark [3] stands for this setting: dose: 500.0 mg/kg/injection, vehicle: carboxymethylcellulose (CMC).
[4] abbreviates: dose: 6.0 mg/kg/injection, vehicle: saline.
Setting [5] is: dose: 12.0 mg/kg/injection, vehicle: saline.
[6] abbreviates: dose: 50.0 mg/kg/injection, vehicle: saline.
[7] abbreviates: dose: 100.0 mg/kg/injection, vehicle: saline.
Setting [8] is: dose: 35.0 mg/kg/injection, vehicle: saline.
Where [9] appears, read: dose: 25.0 mg/kg/injection, vehicle: saline.
Setting [10] is: dose: 12.5 mg/kg/injection, vehicle: saline.
Setting [11] is: dose: 62.0 mg/kg/injection, vehicle: saline.
The mark [12] stands for this setting: dose: 125.0 mg/kg/injection, vehicle: saline.

“And” between values parts separate entries of the source, which are not always exact repeats. Equal entries are not always repeated. Inconclusive results are not listed.

With `COc1ccc(-c2c(CC(=O)O)c3cc(OC)ccc3n2Cc2ccc(Cl)cc2)cc1`, the T/C was 116 % of control under setting [1]; 66 % of control under setting [2]; 54 % of control under setting [3]; 56 % of control (dose: 1000.0 mg/kg/injection, vehicle: carboxymethylcellulose (CMC)).
For `CCC[CH2][Sn]([CH2]CCC)([CH2]CCC)[O]C(=O)CC[S][Sn]([CH2]CCC)([CH2]CCC)[CH2]CCC`, the T/C is 124 % of control (dose: 0.75 mg/kg/injection, vehicle: saline); 90 % of control (dose: 1.5 mg/kg/injection, vehicle: saline); 72 % of control under setting [4]; 89 % of control under setting [5]; 30 % of control (dose: 24.0 mg/kg/injection, vehicle: saline).
`c1ccc(CSc2ncnc3nc[nH]c23)nc1`: the T/C under setting [6] is 76 % of control and 81 % of control; the T/C under setting [7] was 29 % of control and 39 % of control.
Take `CCc1c(CC(=O)O)c2cc(C)ccc2n1Cc1ccc(Cl)cc1`: the T/C under setting [6] is 79 % of control.
For `[I][Hg][CH2]C1COCC([CH2][Hg][I])O1.[I][Hg][CH2]C1COCC([CH2][Hg][I])O1` (stereo not drawn), the T/C under setting [4] was 83 % of control and the T/C under setting [5] was 52 % of control.
Regarding `CSc1ncnc2c1ncn2C1CCCO1` (stereo not drawn), the T/C was 76 % of control (dose: 20.0 mg/kg/injection, vehicle: saline); 83 % of control (dose: 40.0 mg/kg/injection, vehicle: saline); 44 % of control (dose: 160.0 mg/kg/injection, vehicle: saline).
For `CC(CCc1cccc2ccccc12)(C(=O)O)C(=O)O`, the T/C runs as follows: under setting [8], 68 % of control; under setting [6], 157 % of control.
In the case of `CCn1cnc2c(SC)nc(N)nc21`, the T/C was 76 % of control under setting [5]; 93 % of control under setting [9]; 95 % of control under setting [6]; 108 % of control under setting [7]; 57 % of control (dose: 340.0 mg/kg/injection, vehicle: saline).
`CCCCSc1nc(N)nc2c1ncn2CC(C)CC` (stereo not drawn): the T/C runs as follows: under setting [7], 109 % of control; (dose: 200.0 mg/kg/injection, vehicle: saline) 57 % of control.
For the compound `CCOc1ccc(Nc2ncnc3nc[nH]c23)cc1CN(CCCl)CCCl`, the T/C reads like this: (dose: 1.0 mg/kg/injection, vehicle: carboxymethylcellulose (CMC)) 86 % of control; (dose: 4.0 mg/kg/injection, vehicle: carboxymethylcellulose (CMC)) 94 % of control; (dose: 8.0 mg/kg/injection, vehicle: carboxymethylcellulose (CMC)) 83 % of control and 95 % of control.
Take `CC(/C=N/N=C(N)N)=N/N=C(N)N`: the T/C is, setting by setting: under setting [10], 85 % of control; under setting [9], 63 % of control.
On to `S=C(N=Nc1ccccc1)NNc1ccccc1`, for which the T/C runs as follows: (dose: 45.0 mg/kg/injection, vehicle: carboxymethylcellulose (CMC)) 95 % of control; (dose: 65.0 mg/kg/injection, vehicle: carboxymethylcellulose (CMC)) 49 % of control.
As to `Nc1ccc2ccccc2c1N=Nc1ccccc1`, the T/C is 101 % of control (dose: 62.5 mg/kg/injection, vehicle: carboxymethylcellulose (CMC)); 100 % of control under setting [1]; 65 % of control under setting [2]; 41 % of control under setting [3].
In the case of `NC(=O)c1ccc(NC(=O)CCC(=O)Nc2ccc(C(N)=O)cn2)nc1`, the T/C reads like this: (dose: 0.66 mg/kg/injection, vehicle: carboxymethylcellulose (CMC)) 118 % of control and 120 % of control; (dose: 2.5 mg/kg/injection, vehicle: carboxymethylcellulose (CMC)) 67 % of control.
`O=P1(N(CCCl)CCCl)NCCCO1` (stereo not drawn): the T/C is, setting by setting: (dose: 3.6 mg/kg/injection, vehicle: saline) 172 % of control; (dose: 5.5 mg/kg/injection, vehicle: saline) 151 % of control; (dose: 8.3 mg/kg/injection, vehicle: saline) 93 % of control; under setting [9], 22 % of control; under setting [6], 5 % of control; under setting [7], 2 % of control.
In the case of `CCCCCCCCCCCCCCCCC(C(=O)O)C(O)(CC(=O)O)C(=O)O` (stereo not drawn), the T/C runs as follows: (dose: 22.0 mg/kg/injection, vehicle: carboxymethylcellulose (CMC)) 100 % of control; (dose: 35.0 mg/kg/injection, vehicle: carboxymethylcellulose (CMC)) 68 % of control.
Consider `COc1cc([C@@H]2c3cc4c(cc3[C@H](O)[C@H]3COC(=O)[C@@H]23)OCO4)cc(OC)c1OC`, for which the T/C (dose: 7.0 mg/kg/injection, vehicle: saline) is 75 % of control.
For the compound `CSc1ncc(Br)c(Sc2nc(N)nc3nc[nH]c23)n1`, the T/C (dose: 1.5 mg/kg/injection, vehicle: carboxymethylcellulose (CMC)) is 103 % of control; the T/C (dose: 3.0 mg/kg/injection, vehicle: carboxymethylcellulose (CMC)) is 87 % of control; the T/C (dose: 6.0 mg/kg/injection, vehicle: carboxymethylcellulose (CMC)) was 55 % of control; the T/C (dose: 12.0 mg/kg/injection, vehicle: carboxymethylcellulose (CMC)) is 77 % of control.
With `O=C(O)CC(O)(CC(=O)O)C(=O)O.[Ga]`, the T/C (dose: 12.5 mg/kg/injection, vehicle: carboxymethylcellulose (CMC)) was 84 % of control; the T/C (dose: 25.0 mg/kg/injection, vehicle: carboxymethylcellulose (CMC)) was 84 % of control; the T/C (dose: 50.0 mg/kg/injection, vehicle: carboxymethylcellulose (CMC)) was 39 % of control.
Consider `NC1(C(=O)O)CCCC1`, for which the T/C runs as follows: (dose: 15.0 mg/kg/injection, vehicle: saline) 109 % of control; (dose: 23.0 mg/kg/injection, vehicle: saline) 46 % of control; under setting [8], 77 % of control; (dose: 55.0 mg/kg/injection, vehicle: carboxymethylcellulose (CMC)) 30 % of control and 42 % of control; (dose: 55.0 mg/kg/injection, vehicle: saline) 46 % of control; (dose: 85.0 mg/kg/injection, vehicle: carboxymethylcellulose (CMC)) 27 % of control and 45 % of control.
For `CC(C)CCSc1nc(N)nc2nc[nH]c12`, the T/C was 64 % of control under setting [11] and 75 % of control under setting [12].
In the case of `O=P(c1ccccc1)(N1CC1)N1CC1`, the T/C by setting is: (dose: 3.13 mg/kg/injection, vehicle: saline) 106 % of control; (dose: 6.25 mg/kg/injection, vehicle: saline) 93 % of control; under setting [10], 105 % of control; under setting [9], 68 % of control and 71 % of control.
For the compound `CCCCCCC(=O)NC1=C(N2CC2)C(=O)C(NC(=O)CCCCCC)=C(N2CC2)C1=O`, the T/C by setting is: (dose: 15.0 mg/kg/injection, vehicle: carboxymethylcellulose (CMC)) 104 % of control; (dose: 30.0 mg/kg/injection, vehicle: carboxymethylcellulose (CMC)) 83 % of control; (dose: 60.0 mg/kg/injection, vehicle: carboxymethylcellulose (CMC)) 50 % of control; (dose: 120.0 mg/kg/injection, vehicle: carboxymethylcellulose (CMC)) 33 % of control.
Turning to `CC1(C)CC(C)(c2ccccc2)c2ccccc21` (stereo not drawn), the T/C is 92 % of control (dose: 75.0 mg/kg/injection, vehicle: saline); 70 % of control (dose: 150.0 mg/kg/injection, vehicle: saline); 52 % of control (dose: 300.0 mg/kg/injection, vehicle: saline).
`Fc1ccc(CSc2ncnc3c2ncn3C2CCCCO2)cc1` (stereo not drawn): the T/C under setting [11] is 81 % of control; the T/C under setting [12] was 71 % of control; the T/C (dose: 250.0 mg/kg/injection, vehicle: saline) was 93 % of control; the T/C (dose: 500.0 mg/kg/injection, vehicle: saline) is 28 % of control.

Source of the values: PubChem BioAssay AID310 (DTP/NCI, 2004).
